Reference: ChEMBL document CHEMBL4627370, “Discovery of δ opioid receptor full agonists lacking a basic nitrogen atom and their antidepressant-like effects” (Bioorg Med Chem Lett, 2020)
Calls of active or inactive are those of the source. No cut-off for these calls is given here.

What was measured:
[1] = target: T1, Delta-type opioid receptor (Homo sapiens, UniProt P41143); experiment: Displacement of [3H]DPDPE from human delta opioid receptor expressed in CHO cells; type: cell-based
[2] = species on record: Homo sapiens; experiment: Selectivity ratio for Ki for displacement of [3H]DAMGO from human mu opioid receptor expressed in CHO cells to Ki for displacement of [3H]DPDPE from human DOR expressed in CHO cells; type: cell-based
[3] = target: T1, Delta-type opioid receptor; experiment: Agonist activity at human delta opioid receptor expressed in CHO cell membranes by [35S]GTPgammaS binding assay; type: functional
[4] = target: T1, Delta-type opioid receptor; experiment: Agonist activity at human delta opioid receptor expressed in CHO cell membranes by [35S]GTPgammaS binding assay relative to control; type: functional
[5] = target: Mu-type opioid receptor (Homo sapiens, UniProt P35372); experiment: Displacement of [3H]DAMGO from human mu opioid receptor expressed in CHO cells; type: cell-based
Mu-type opioid receptor, sequence (P35372 whole entry): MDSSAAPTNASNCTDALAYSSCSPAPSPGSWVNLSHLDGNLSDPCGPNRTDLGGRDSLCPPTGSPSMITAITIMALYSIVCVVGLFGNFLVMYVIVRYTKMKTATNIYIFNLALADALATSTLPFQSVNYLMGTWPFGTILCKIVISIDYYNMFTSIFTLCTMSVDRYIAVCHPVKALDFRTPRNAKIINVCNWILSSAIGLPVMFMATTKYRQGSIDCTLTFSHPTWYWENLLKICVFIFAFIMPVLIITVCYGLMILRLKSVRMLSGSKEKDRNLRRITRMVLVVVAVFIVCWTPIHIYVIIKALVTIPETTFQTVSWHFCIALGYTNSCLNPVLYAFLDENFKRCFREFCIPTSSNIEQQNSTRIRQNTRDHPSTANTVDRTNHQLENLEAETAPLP

[6] = species on record: Homo sapiens; experiment: Selectivity ratio for Ki for displacement of [3H]U69593 from human kappa opioid receptor expressed in CHO cells to Ki for displacement of [3H]DPDPE from human DOR expressed in CHO cells; type: cell-based
[7] = target: Kappa-type opioid receptor (Homo sapiens, UniProt P41145); experiment: Displacement of [3H]U69593 from human kappa opioid receptor expressed in CHO cells; type: cell-based
Kappa-type opioid receptor, sequence (P41145 whole entry): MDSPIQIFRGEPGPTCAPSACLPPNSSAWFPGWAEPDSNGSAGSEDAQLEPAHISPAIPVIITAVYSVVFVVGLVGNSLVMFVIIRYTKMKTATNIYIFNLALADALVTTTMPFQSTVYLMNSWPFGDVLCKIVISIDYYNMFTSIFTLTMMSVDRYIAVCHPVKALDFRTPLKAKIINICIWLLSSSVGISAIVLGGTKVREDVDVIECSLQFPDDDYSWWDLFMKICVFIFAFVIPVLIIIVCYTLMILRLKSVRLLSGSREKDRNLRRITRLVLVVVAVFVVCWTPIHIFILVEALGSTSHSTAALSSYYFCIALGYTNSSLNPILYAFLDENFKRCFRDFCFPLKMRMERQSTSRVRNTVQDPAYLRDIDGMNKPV

[8] = test system: Mus musculus; experiment: Antidepressant activity in sc dosed mouse assessed as decrease in total immobility count by forced swim test; type: functional, organism-based
[9] = test system: Mus musculus; experiment: Antidepressant activity in mouse at 3 mg/kg, sc by forced swim test; type: functional, organism-based
[10] = test system: Mus musculus; experiment: Antidepressant activity in sc dosed mouse assessed as increase in climbing count by forced swim test; type: functional, organism-based
[11] = test system: Mus musculus; experiment: Antidepressant activity in sc dosed mouse assessed as increase in total swimming count by forced swim test; type: functional, organism-based
[12] = test system: Mus musculus; experiment: Antidepressant activity in mouse at 10 mg/kg, sc by forced swim tes; type: functional, organism-based
[13] = target: T1, Delta-type opioid receptor; experiment: Inverse agonist activity at human delta opioid receptor expressed in CHO cell membranes by [35S]GTPgammaS binding assay; type: functional

T1 sequence (P41143 whole entry): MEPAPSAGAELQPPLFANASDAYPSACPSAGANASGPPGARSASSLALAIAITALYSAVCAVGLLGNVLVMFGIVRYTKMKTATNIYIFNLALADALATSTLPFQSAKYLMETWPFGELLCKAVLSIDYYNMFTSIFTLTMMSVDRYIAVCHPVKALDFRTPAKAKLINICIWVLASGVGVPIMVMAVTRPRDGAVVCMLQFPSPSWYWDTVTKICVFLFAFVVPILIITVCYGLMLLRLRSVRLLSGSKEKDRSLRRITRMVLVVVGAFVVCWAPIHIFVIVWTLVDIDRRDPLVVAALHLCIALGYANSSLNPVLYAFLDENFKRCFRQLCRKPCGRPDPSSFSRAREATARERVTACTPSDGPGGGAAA

| SMILES | Ki [1] [nM] | Ratio Ki [2] | EC50 [3] [nM] | Emax [4] [%] | Ki [5] [nM] | Ratio Ki [6] | Ki [7] [nM] | Activity [8] | Activity [9] | Activity [10] | Activity [11] | Activity [12] | EC50 [13] [nM] |
| --- | --- | --- | --- | --- | --- | --- | --- | --- | --- | --- | --- | --- | --- |
| O=C(CCc1ccccc1)N1CC[C@]23Cc4nc5ccccc5cc4C[C@@]2(O)[C@H]1Cc1ccc(O)cc13 | 4.17 | 430 | 10.4 | 123 | 1790 |  |  |  |  |  |  |  |  |
| O=C(CCc1ccccc1)N1CC[C@]23c4c5ccc(O)c4O[C@H]2c2[nH]c4ccccc4c2C[C@@]3(O)[C@H]1C5 | 89 | 39.2 | 127 | 88.5 | 3480 | 24.2 | 2150 |  |  |  |  |  |  |
| O=C(Cc1ccccc1)N1CC[C@]23c4c5ccc(O)c4O[C@H]2c2[nH]c4ccccc4c2C[C@@]3(O)[C@H]1C5 | 41.5 | 209 | 132 | 97.5 | 8670 | 144 | 5990 |  |  |  |  |  |  |
| O=C(Cc1ccccc1)N1CC[C@]23Cc4nc5ccccc5cc4C[C@@]2(O)[C@H]1Cc1ccc(O)cc13 | 26 |  | 14.4 | 125 |  |  |  | Dose-dependent effect | Active | Dose-dependent effect | Dose-dependent effect |  |  |
| CN1CC[C@]23Cc4nc5ccccc5cc4C[C@@]2(O)[C@H]1Cc1ccc(O)cc13 |  |  |  |  |  |  |  | Dose-dependent effect |  | Dose-dependent effect | Dose-dependent effect | Active |  |
| COC1=CC=C2C[C@H]3N(C(=O)C4CC4)CC[C@]45C2C1O[C@H]4c1[nH]c2ccccc2c1C[C@@]35O (stereo partly specified) |  |  |  |  |  |  |  |  |  |  |  |  | 322 |
